Experimental data: paper PMC11371747, “The role of l-leucovorin uptake and metabolism in the modulation of 5-fluorouracil efficacy and antifolate toxicity” (Frontiers in Pharmacology, 2024)
Where two headings read alike, the source gives them in different places.

Experiments:
[1] = molecular target: T1, thymidylate synthase (TS) (Homo sapiens, UniProt P04818); test: TS in situ inhibition assay (TSIA) in colon cancer cells; assay type: cell-based; conditions: WiDr, 4 h, antifolate alone
T1 construct: The principle of this assay is the measurement of TS enzymatic activity in intact cells; endogenous in cells; host or cells: colon cancer cell lines (WiDr, WiDr-LF, SW1398, LS174T and others)
T1 sequence (P04818 2-313 limits assumed): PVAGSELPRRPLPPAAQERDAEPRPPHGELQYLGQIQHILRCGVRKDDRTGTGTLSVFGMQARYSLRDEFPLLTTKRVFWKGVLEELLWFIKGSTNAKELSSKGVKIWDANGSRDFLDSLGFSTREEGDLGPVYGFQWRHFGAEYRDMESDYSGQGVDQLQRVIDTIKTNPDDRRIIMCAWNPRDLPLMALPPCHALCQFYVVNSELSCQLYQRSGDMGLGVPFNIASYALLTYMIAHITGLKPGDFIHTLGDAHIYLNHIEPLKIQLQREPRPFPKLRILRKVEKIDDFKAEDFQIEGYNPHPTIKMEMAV
Excerpt: The principle of this assay is the measurement of TS enzymatic activity in intact cells. Intact cells will readily internalize radioactively labelled [5-^3H]-deoxycytidine, which will be rapidly converted by deoxycytidine kinase (dCK) to [5-^3H]-dCMP and subsequently deaminated to [5-^3H]-dUMP, which will then serve as a substrate in the TS catalysed reaction to dTMP and ^3H2O; the quantity of ^3H2O formed over time is a measure of intracellular TS activity. […] This is because dCK has a higher, cell cycle independent activity than thymidine kinase 1, which is a cell cycle dependent enzyme. For this purpose, cancer cells were cultured in six wells plates at 2.5 × 10^5 cells/2 mL/well for 24 h. Thereafter, cells were exposed to drugs with or without the LV formulations at the indicated concentrations for 4 h. 2 h before the end of the incubation period [5-^3H]-2′-deoxycytidine (final concentration 1 µM) was added to the cells. […] In most cell lines we quantified dCK activity and dCK mRNA levels.

CHO/C5-hRFC cells = test: Growth inhibition, SRB assay, CHO/C5-hRFC (human RFC transfected); assay type: cell-based, Chinese hamster; conditions: CHO/C5-hRFC
Experimental: (§1) Briefly, cells were seeded in triplicate in 96-well plates at their pre-established optimal density (CHO cells: 2,500 cells/100 μL; WiDr and HT29: 3,500 cells/100 μL; WiDr-LF/LV, LS174T: 5,000 cells/100 μL; CaCo2, CaCo2-LF/LV, H292, H28 and MSTO-211H: 6,000 cells/100 μL; H460, SW948 and SW1398: 7,000 cells/100 μL) and were allowed to attach for ∼ 24 h at 37°C in 5% CO2 and 100% humidified incubator. Thereafter, 100 μL of drug dilution without LV, or with 5 μM l-LV/5 μM d-LV/10 μM dL-LV (or any LV alone) were added. Cells were allowed to grow for 72 h at 37°C in 5% CO2 and 100% humidity. The t = 0 h control plate consisted of cells plated on the same day as the other cells, but after 24 h at 37°C in 5% CO2 and 100% humidity, only 100 μL medium was added and the cells were fixed immediately with 50% trichloroacetic acid (TCA) in milliQ water (25 μL per well) and put at 4°C for at least 1 h. Plates were washed five times with water and dried. Cells were stained with the SRB protein dye (0.4% (w/v) in 1% acetic acid. Excess dye was washed away four times with 1% acetic acid and plates were dried again. 200 μL of Tris (10 mM Tris (hydroxymethyl)-aminomethane in MQ) was added and optical density (OD) was read at 492 nm after mixing 2–3 min on a plate shaker.

CHO/C5-MOCK cells = test: Growth inhibition, SRB assay, CHO/C5-MOCK (empty vector); assay type: cell-based, Chinese hamster
Experimental: as §1

CHO/C5 cells = test: Growth inhibition, SRB assay, CHO/C5 (RFC-deficient); assay type: cell-based, Chinese hamster
Experimental: as §1

H460 cells = test: Growth inhibition, SRB assay, H460 (NSCLC); assay type: cell-based, human; conditions: for IC50: H460, SRB, read-out: IC50, 72 h drug exposure
Experimental: as §1

MSTO-211H cells = test: Growth inhibition, SRB assay, MSTO-211H (MPM); assay type: cell-based, human; conditions: for IC50: SRB, read-out: IC50, 72 h drug exposure
Experimental: as §1

[2] = molecular target: T2, reduced folate carrier (RFC/SLC19A1) (Homo sapiens, UniProt P41440); test: Inhibition of RFC-mediated [3H]-l-LV influx in CEM-7A cells; assay type: cell-based
T2 construct: CEM-7A cells, which display 30-fold RFC overexpression relative to wild-type CCRF-CEM cells; endogenous in cells; host or cells: CEM-7A (CCRF-CEM variant, RFC+++ 30-fold)
T2 sequence (P41440 1-591): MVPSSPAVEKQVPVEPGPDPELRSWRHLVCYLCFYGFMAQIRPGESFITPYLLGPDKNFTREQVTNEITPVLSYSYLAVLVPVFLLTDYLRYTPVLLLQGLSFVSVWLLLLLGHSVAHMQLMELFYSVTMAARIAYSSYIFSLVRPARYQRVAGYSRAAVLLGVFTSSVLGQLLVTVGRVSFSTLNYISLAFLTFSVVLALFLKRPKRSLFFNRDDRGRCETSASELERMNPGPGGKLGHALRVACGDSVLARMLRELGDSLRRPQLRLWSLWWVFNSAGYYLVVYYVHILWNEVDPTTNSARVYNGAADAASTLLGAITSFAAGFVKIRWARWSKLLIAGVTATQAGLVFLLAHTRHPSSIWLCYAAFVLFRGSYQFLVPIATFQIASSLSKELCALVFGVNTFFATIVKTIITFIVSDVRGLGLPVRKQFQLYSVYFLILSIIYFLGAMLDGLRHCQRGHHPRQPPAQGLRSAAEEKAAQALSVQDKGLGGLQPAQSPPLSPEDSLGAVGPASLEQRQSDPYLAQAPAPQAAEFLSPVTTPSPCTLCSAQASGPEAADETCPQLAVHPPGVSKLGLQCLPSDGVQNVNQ
Experimental: In order to determine whether the LV isomers were substrates for either folate receptor α (FRα), RFC and/or PCFT, we used model systems with established overexpression of these receptors or transporters ([Westerhof et al., 1995a]; [Westerhof et al., 1995b]; [Lasry et al., 2008]; [Van der Heijden et al., 2009]).
CEM-7A cells (2 × 10^6) were suspended in 1 mL HBSS and the assay was initiated by addition of 25 μL 200 μM [^3H]-l-LV; 5,000 pmol (i.e., 5 μM final concentration). Incubations proceeded for 2 min at 37°C in the absence and presence of increasing amounts of unlabelled LV/antifolate drug. Blanks consisted of a separate incubation at 4°C or incubation with 100-fold molar excess of unlabelled l-LV. [^3H]-l-LV influx was terminated by adding 9 mL ice-cold HBSS, centrifugation and an additional wash of the cells with 10 mL ice-cold buffer. Cell pellets were then assessed for radioactivity. Relative affinities for RFC are expressed as the concentration of unlabelled drug necessary to inhibit [^3H]-l-LV uptake by 50%.

H292 cells = test: Growth inhibition, SRB assay, H292 (NSCLC); assay type: cell-based, human; conditions: for IC50: H292, SRB, read-out: IC50, 72 h drug exposure
Experimental: as §1

[3] = Cricetulus griseus, antifolate alone

C#CCC(Cc1cnc2nc(N)nc(N)c2n1)c1ccc(C(=O)N[C@@H](CCC(=O)O)C(=O)O)cc1 (some centres unmarked) [PLX, pralatrexate]
IC50 [1]: 0.0177 ± 0.0047 µM | IC50 (CHO/C5-hRFC cells; antifolate + 5 µM l-LV): 0.9 µM | IC50 (CHO/C5-hRFC cells; [3]): 0.0038 µM | IC50 (CHO/C5-MOCK cells; [3]): 13.1 µM | IC50 (CHO/C5-MOCK cells; antifolate + 5 µM l-LV): > 100 µM | IC50 (CHO/C5 cells; [3]): 9.5 µM | IC50 (CHO/C5 cells; antifolate + 5 µM l-LV): 48.3 µM | IC50 (H460 cells; antifolate + 5 µM l-LV): 1.45 µM | Relative protection by 5 µM l-LV (H460 cells; H460, ratio IC50 antifolate + LV / IC50 antifolate): 502 ± 21 | IC50 (H460 cells; Homo sapiens, NCI-H460, 72 h, antifolate alone): 0.0028 ± 0.0001 µM | IC50 (MSTO-211H cells; Homo sapiens, 72 h, antifolate alone): 0.0024 ± 0.0001 µM | IC50 (MSTO-211H cells; antifolate + 5 µM l-LV): 3.34 µM | Relative protection by 5 µM l-LV (MSTO-211H cells; ratio IC50 antifolate + LV / IC50 antifolate): 1,601 ± 275 | 50% inhibition of [3H]-l-LV influx (RFC), fold lower concentration than l-LV [2]: 2.5 fold | IC50 (H292 cells; antifolate + 5 µM l-LV): 19.1 µM | Relative protection by 5 µM l-LV (H292 cells; H292, ratio IC50 antifolate + LV / IC50 antifolate): 4,778 ± 1795 | IC50 (H292 cells; Homo sapiens, NCI-H292, 72 h, antifolate alone): 0.0037 ± 0.0003 µM
